How the values were obtained:
[1] = octanol saline (1:1) partition; assay type: physicochemical; conditions: read-out: Partition Coefficients (converted)
Excerpt: Partition coefficients relate to octanol saline (1:1) partition

[2] = removal of Zn^2+ from an equimolar mixture of Zn^2+ and Cd^2+ (ion chromatography); conditions: 20 mM each Zn^2+ and Cd^2+; 3.0 mM carrier in chloroform
[3] = selective extraction and transport from an equimolar mixture of six bivalent metal ions through a CHCl3 bulk membrane (U-tube, ion chromatography)
Procedure: Several of the ion binders, when incorporated into bulk membranes, selectively extract and transport a specific metal ion from a plurality of cations. An example is the quantitative separation of Cu^2+ from a mixture of six two-valent metal ions. This is illustrated by the quantitative removal of Cu^2+ from an equimolar mixture (10 mM each) of Pb^2+, Cu^2+, Cd^2+, Co^2+, Zn^2+ and Ni^2+ in water.

[4] = removal of Cu^2+ from an equimolar mixture of Cu^2+ and Fe^3+; conditions: 3 mM each Cu^2+ and Fe^3+, 6 mM citric acid, pH 6.8 with KOH; 4.5 mM carrier in chloroform; receiver 3 mM DTPA at pH 2
Procedure: A third example is the removal of Cu^2+ from an equimolar mixture of Cu^2+ and Fe^3+ (3 mM each in the presence of 6 mM citric acid titrated to pH 6.8 with KOH) with less than 10% contamination of Fe^3+, by using a carrier (n=2, m=0, q=0, R^1 =CH3) 4.5 mM concentration in chloroform and in the receiver phase 3 mM DTPA at pH2.

logP [1] | Structure (SMILES) | further results
0.568 | CC(C)CC(NC(=O)COCC(C)(C)COCC(=O)NC(CC(C)C)C(=O)N(C)O)C(=O)N(C)O (stereo not drawn) | –
0.29 | CCCC(C)(COCC(=O)N(C)O)COCC(=O)N(C)O [q = 0, n=1, R^1=Me, R^2=Me, R^3=Pr] | –
0.29 | CC(NC(=O)COCC(C)(C)COCC(=O)NC(C)C(=O)N(C)O)C(=O)N(C)O (stereo not drawn) [q = 1, n=1, R=Me, R^1=Me, R^2=Me, R^3=Me] | –
-0.0862 | CN(O)C(=O)CCOCC(C)(C)COCCC(=O)N(C)O [q = 0, n=2, R^1=Me, R^2=Me, R^3=Me] | contamination of Fe^3+ on removal of Cu^2+ [4]: less than 10%
0.5 | CCOC(=O)CCN(O)C(=O)COCC(C)(C)COCC(=O)N(O)CCC(=O)OCC | –
0.352 | CN(O)C(=O)COCC(C)(C)COCC(=O)N(C)O [q = 0, n=1, R^1=M, R^2=Me, R^3=Me] | –

Structure (SMILES) | logP [1] | further results
CC(C)C[C@H](NC(=O)CCOCC(C)(C)COCCC(=O)N[C@@H](CC(C)C)C(=O)N(C)O)C(=O)N(C)O | 1.2 | contamination of Cd^2+ on removal of Zn^2+ [2]: without any contamination of Cd^2+; removal of Cu^2+ from equimolar mixture ([3]; 10 mM each of Pb^2+, Cu^2+, Cd^2+, Co^2+, Zn^2+, Ni^2+ in water, 0.3 mM carrier in CHCl3, receiver 0.1 M H2SO4): quantitatively removed; contamination by other metals ([3]; 10 mM each of six metal ions, 0.3 mM carrier in CHCl3, receiver 0.1 M H2SO4, DIONEX ion chromatography): without a trace of contamination by other metals; metal content of receiver arm after extraction ([3]; after 160 hours, equimolar mixture of six cations (FIG. 1B)): containing only Cu^2+

From patent publication US5149845A, “Extractants for the separation of transition and related metal ions” (Yeda Research and Development Co. Ltd., priority 1988, dated 1992)
